# Results from patent US20250276026A1, “TRANSIENT COMMENSAL MICROORGANISM FOR IMPROVING GUT HEALTH” (INFINANT HEALTH, INC, priority 2016, published 2025).
# Tested on: Clostridium difficile
# Experiment: Outbreak of Clostridium difficile hemorrhagic diarrhea in newborn foals; probiotic formulation vs standard of care
# Assay type: in vivo
# Settings: all animals dosed at birth with 6.6 mg/kg
# Protocol: Newborn foals born to mares at a large horse breeding barn were monitored during an outbreak of severe hemorrhagic diarrhea among the foals. […] Seventeen foals were born during the initial phase of the outbreak, of which fifteen animals became ill and required intervention according to the standard of care as described in the Merck Veterinary Manual. Standard of care involved metronidazole treatment given at a dose of 15-20 mg/kg, PO, tid-qid. and may also involve administration of large volumes of interveneous polyionic fluids, with supplemental electrolytes (potassium, magnesium, and calcium), plasma or synthetic colloids for low oncotic pressure, anti-inflammatoires such as flunixin meglumine, and broad-spectrum antibiotics if the horse is leukopenic and at risk of bacterial translocation across the compromised GI tract. Polymyxin B may aid in binding systemic endotoxin.
# Of these seventeen foals, fifteen developed loose stool or diarrhea lasting 3-4 days, and 2 died as a result of the infection. After observing the outbreak, the next foals were provided a formulation of 3×10^12 CFU Bifidobacterium longum subsp. infantis EVBL001 and 5×10^9 CFU of Lactobacillus plantarum EVLP001 every 12 hours. The two foals that were provided with the formulation at 12 hours of age developed a mild diarrhea, but recovered within 8 hours compared to 3-4 days with standard of care. […]
smiles,measurement,value
CO/N=C(\C(=O)N[C@@H]1C(=O)N2C(C(=O)O)=C(CSC(=O)c3ccco3)CS[C@H]12)c1csc(N)n1 [ceftiofur],effect on health outcome related to diarrhea,did not affect health outcome
